In US10828368B2, “Therapeutic treatments using centhaquin” (MIDWESTERN UNIVERSITY, priority 2009, dated 2020):
Counter-ions that a name gives are not always drawn. Ends that are not written are not given here.

Key:
[1] = tested on: urethane anaesthetized rats; experiment: Cardiovascular response (MAP, PP, HR) of drugs in urethane anaesthetized rats; type: in vivo, rat; conditions: for decrease in HR after centhaquin in antagonist treated rats, compared to baseline / decrease in MAP after centhaquin in antagonist treated rats, compared to baseline / decrease in PP after centhaquin in antagonist treated rats, compared to baseline / potentiation of centhaquin hypotensive effect compared to vehicle treated rats / potentiation of centhaquin-induced decrease in HR (bradycardia) compared to vehicle treated rats: TAK-044 1 mg/kg or BMS-182874 9 mg/kg + centhaquin 0.15 mg/kg; for maximum decrease in PP after clonidine in antagonist treated rats, compared to baseline / reduction in MAP after clonidine in antagonist treated rats, compared with the baseline: TAK-044 1 mg/kg or BMS-182874 9 mg/kg + clonidine 10 μg/kg; for change in MAP, PP and HR, antagonist alone: TAK-044 1 mg/kg or BMS-182874 9 mg/kg alone; for Bradycardia, Centhaquin, percent change / Decrease in pulse pressure, Centhaquin, percent change / Hypotension, Centhaquin, percent change: centhaquin 0.33 mg/kg [sic], compared to centhaquin response in control rats
Description: Rats were anaesthetized with urethane (1.5 g/kg i.p.) and prepared for the determination of hemodynamic parameters (Gulati and Srimal, 1993; Gulati et al., 1997b). The anesthetized rats were shaved and immobilized to prepare for cannulation. A 2-3 cm incision was made above the femoral vein and artery, and the vessels were dissected and cleaned. The left femoral vein was cannulated (PE-50 tubing, Clay Adams, Parsipanny, N.J.) and secured for drug administration. An ultra-miniature Pressure transducer SPR-320 (2F Polyurethane), with a single pressure sensor side mounted at the tip (Millar Instruments, Houston, Tex.), was inserted in the left femoral artery to acquire the hemodynamic signals. Pressure transducer was connected to bridge amplifier (ML221 Bridge Amp; AD Instruments, Mountain View, Calif., USA) with Viking connector (AEC-10C) and the signals were continuously acquired at a sampling rate of 1000 S^−1 using Millar PowerLab 16/30 data acquisition system (AD Instruments, Mountain View, Calif., USA). MAP, HR, and PP were determined and analyzed with LabChart-5.00 software program (Millar Instruments). After the experiment was completed, the animals were euthanized with higher dose of urethane (3 gm/kg).
The animals were allowed to stabilize for at least 20 min following surgical procedures.
In the above studies, all drugs were injected through the left femoral vein and changes in MAP, HR, and PP after clonidine and centhaquin injection were recorded for 1 hour using Millar PowerLab 16/30 data acquisition system.

[2] = tested on: rat abdominal aortic ring; experiment: Clonidine response on the abdominal aortic ring; conditions: ET-1 4 nM pretreated aorta
Protocol: The abdominal aorta was isolated and dissected out from urethane (1.5 g·kg^−1 i.p.) anesthetized rats and was transferred to Krebs bicarbonate buffer pH 7.4 (composition in mM, NaCl, 112.0; KCl, 4.7; KH2PO4, 1.2; MgSO4, 1.2; CaCl2, 2.5; NaHCO3, 25.0; glucose, 11.0) with continuous supply of 95% O2 and 5% CO2 at 37±1° C. The tissue was cut into ring segments (3 mm in length) and mounted in organ baths using 10 mm Radnoti glass ring supports. Extra care was taken while cutting and mounting the ring segment to prevent loss of endothelial layer. Tissue was equilibrated for 45 min by applying 2 g of tension with regular buffer change after every 15 min. Vessels were pre-contracted with 100 mM KCl to determine the viability. Clonidine-induced contractions of aortic ring were measured using Radnoti 8 unit tissue bath (Radnoti Glass Technology, Monrovia, Calif.) and the force transducer coupled with a Grass P7D polygraph. The dose response was recorded for 0.25, 0.5, 1, 2, 4, 6, 8, and 10 μM of clonidine with or without ET-1 (4 nM) treatment and ED50 value was calculated. Experiments were performed in Group 1: Vehicle+Clonidine (0.25 to 10 μM); and Group 2: ET-1 (4 nM)+Clonidine (0.25 to 10 μM) using (n=6) rats in each group.

[3] = ET-1 300 ng/kg + prazosin 0.1 mg/kg + centhaquin 0.15 mg/kg
[4] = ET-1 100 ng/kg + clonidine 10 μg/kg, compared to vehicle treated rats receiving clonidine
[5] = ET-1 300 ng/kg + clonidine 10 μg/kg, compared to vehicle treated rats receiving clonidine
[6] = ET-1 900 ng/kg + centhaquin 0.15 mg/kg, compared to vehicle treated rats receiving centhaquin
[7] = ET-1 900 ng/kg + clonidine 10 μg/kg, compared to vehicle treated rats receiving clonidine

Cc1noc(NS(=O)(=O)c2cccc3c(N(C)C)cccc23)c1C [BMS-182874, (5-Dimethylamino)-N-(3,4-dimethyl-5-isoxazolyl)-1-naphthalene sulfonamide hydrochloride]
potentiation of centhaquin induced decrease in HR, more than that produced by TAK-044 treatment ([1]; BMS-182874 9 mg/kg versus TAK-044 1 mg/kg, centhaquin 0.15 mg/kg): 18.63% | decrease in HR after centhaquin in antagonist treated rats, compared to baseline [1]: 35.72% | decrease in MAP after centhaquin in antagonist treated rats, compared to baseline [1]: 43.46% | decrease in PP after centhaquin in antagonist treated rats, compared to baseline [1]: 49.68% | potentiation of centhaquin hypotensive effect compared to vehicle treated rats [1]: 30.67% | potentiation of centhaquin-induced decrease in HR (bradycardia) compared to vehicle treated rats [1]: 29.00% | maximum decrease in PP after clonidine in antagonist treated rats, compared to baseline [1]: 44.97% | reduction in MAP after clonidine in antagonist treated rats, compared with the baseline [1]: 29.44% | change in MAP, PP and HR, antagonist alone [1]: no significant change | Bradycardia, Centhaquin, percent change [1]: (29.00%) | Decrease in pulse pressure, Centhaquin, percent change [1]: (28.72%) | Hypotension, Centhaquin, percent change [1]: (30.67%)

COc1cc2nc(N3CCN(C(=O)c4ccco4)CC3)nc(N)c2cc1OC [Prazosin]
effect of prazosin on changes produced in MAP by centhaquin in ET-1 treated rats [1, 3]: completely (p<0.01) blocked | effect of prazosin on decrease in HR induced by centhaquin in ET-1 treated rats [1, 3]: significantly (p<0.05) attenuated | effect of prazosin on decrease in PP induced by centhaquin in ET-1 treated rats [1, 3]: significantly (p<0.001) attenuated | effect of prazosin on changes in MAP and HR by centhaquin in vehicle treated rats ([1]; prazosin 0.1 mg/kg + centhaquin 0.15 mg/kg): blocked

ET-1: endogenous 21-residue peptide endothelin isopeptide, used as ET agonist (CSCSSLMDKECVYFCHLDIIW; not fully specified; ends and bridges not checked; UniProt P05305 53-73, looked up)
decrease in HR produced by centhaquin, ET-1 versus vehicle treated rats ([1]; ET-1 100 ng/kg + centhaquin 0.15 mg/kg): similar | attenuation of clonidine induced fall in PP ([1]; ET-1 100 ng/kg + clonidine 10 μg/kg): 33.66% | attenuation of clonidine-induced decrease in HR [1, 4]: 18.01% | attenuation of clonidine-induced fall in MAP [1, 4]: 27.63% | effect on centhaquin-induced decrease in HR ([1]; ET-1 300 ng/kg + centhaquin 0.15 mg/kg): significantly attenuated | attenuation of clonidine-induced decrease in HR [1, 5]: 21.00% | attenuation of clonidine-induced decrease in MAP [1, 5]: 27.41% | attenuation of centhaquin-induced decrease in HR (increase in HR compared to untreated rats) [1, 6]: 21.44% | attenuation of centhaquin-induced decrease in MAP (increase in MAP compared to untreated rats) [1, 6]: 33.48% | attenuation of clonidine-induced decrease in HR (increase in HR compared to untreated rats) [1, 7]: 37.42% | attenuation of clonidine-induced decrease in MAP (increase in MAP compared to untreated rats) [1, 7]: 42.58% | change in HR compared to baseline, ET-1 alone ([1]; ET-1 100, 300 and 900 ng/kg): no change | change in MAP compared to baseline, ET-1 alone ([1]; ET-1 100, 300 and 900 ng/kg): fall (p<0.001) followed by significant rise | effect of ET-1 treatment on clonidine-induced fall in MAP ([1]; ET-1 100, 300 and 900 ng/kg i.v., clonidine 10 μg/kg i.v., dose-dependent manner): significantly attenuated | effect of ET-1 treatment on centhaquin-induced fall in MAP ([1]; ET-1 100, 300 and 900 ng/kg, centhaquin 0.15 mg/kg i.v., dose-dependent manner): significantly attenuated | attenuation of centhaquin-induced decrease in MAP ([1]; ET-1 100 and 300 ng/kg + centhaquin 0.15 mg/kg): small statistically insignificant attenuation | attenuation of clonidine induced fall in PP ([1]; ET-1 300 and 900 ng/kg + clonidine 10 μg/kg): showed attenuation, but did not reach the level of statistical significance | effect of ET-1 pretreatment on contractile response of clonidine [2]: significantly potentiated

cyclo [D-α-aspartyl-3-[(4-phenylpiperazin-1-yl) carbonyl]-L-alanyl-L-α-aspartyl-D-2-(2-thienyl)glycyl-L-leu-Cyl-D-tryptOphyljdisodium salt [TAK-044]
decrease in HR after centhaquin in antagonist treated rats, compared to baseline [1]: 21.94% | decrease in MAP after centhaquin in antagonist treated rats, compared to baseline [1]: 32.31% | decrease in PP after centhaquin in antagonist treated rats, compared to baseline [1]: 46.49% | potentiation of centhaquin hypotensive effect compared to vehicle treated rats [1]: 16.48% | potentiation of centhaquin-induced decrease in HR (bradycardia) compared to vehicle treated rats [1]: 12.74% | maximum decrease in PP after clonidine in antagonist treated rats, compared to baseline [1]: 52.72% | reduction in MAP after clonidine in antagonist treated rats, compared with the baseline [1]: 36.59% | change in MAP, PP and HR, antagonist alone [1]: no significant change | Bradycardia, Centhaquin, percent change [1]: (12.74%) | Decrease in pulse pressure, Centhaquin, percent change [1]: (23.83%) | Hypotension, Centhaquin, percent change [1]: (16.48%)
